Consider five compounds from patent publication US11000538B2, “Composition for enhancing exercise ability or anti-fatigue comprising novel ginsenoside” (priority 2018, dated 2021).

“Also recorded” adds a separate entry of the source.

Data set [1] concerns mouse-derived myocyte lines (C2C12; ATCC). The data set is described as follows: Mitochondrial production in differentiated myocytes (Mitotracker Green staining, Q-PCR of mitochondrial marker genes). It counts as cell-based. To be noted: 20 pg/ml, 24 hours. The method, then:
(§1) Ginseng seed-derived ginsenosides were administered to mouse-derived myocyte lines (C2C12; ATCC) to observe changes in mitochondrial amount and fatty acid oxidation in myocytes.
(§2) The mouse-derived myocyte lines (C2C12; ATCC) were cultured using Dulbecco's Modified Eagle's Medium (DMEM; Sigma) containing […] fetal bovine serum (Hyclone) and 1% penicillin/streptomycin (Sigma). The cells were induced to be 100% confluent for differentiation into myocytes and then differentiated using a DMEM medium containing 2% horse serum (Hyclone) and 1% penicillin/streptomycin (Sigma). Medium was changed daily, with differentiation for a total of a week.
(§3) After treating the differentiated myocytes with the novel ginsenoside GS #10 of one embodiment of the present disclosure and the other ginsenosides GS #01-GS #06 isolated from the existing ginseng seed extract at a concentration of 20 pg/ml for 24 hours, respectively, the amount of mitochondria in myocytes was observed by staining with a Mitotracker Green™ (Invitrogen) reagent. mRNA expression levels of mitochondrial marker genes were measured using Q-PCR. As positive controls, a combination of GW501516 and Metformin (GW/Met; treated at 10 μM each), which are candidates for exercise mimetics and are known to improve exercise ability by activating PPARδ (Peroxisome proliferator-activated receptor delta) and AMPK (AMP-activated protein kinase), respectively, was used. The mitochondrial number measured as a result of the test is shown in FIG. 11, and the mitochondrial marker gene expression levels are shown in FIGS. 12 to 14.
(§4) The experiments were performed in the same manner as in Test Examples 1 and 2 above, respectively.
(§5) First, the C2C12 myocytes differentiated in the same manner as in Test Example 1 above were treated with ginsenosides Rg1, Rg3, and Rb1, which are comparative examples of the present disclosure, and the novel ginsenoside GS #10 of one embodiment of the present disclosure, respectively, and then mitochondria and marker genes were observed (FIGS. 21 to 25). In addition, in the same manner as in Test Example 2 above, after administration of 20 mg/kg each of ginsenosides Rg1, Rg3, Rb1, which are comparative examples of the present disclosure, and the novel ginsenoside GS #10 of one embodiment of the present disclosure for 6 weeks to the mice, the exercise ability was observed.

The test system of another data set is Sprague-Dawley (SD) mice. The data set is described as follows: Treadmill experiment after 6 weeks of oral administration (muscle mitochondrial genes, exercise time, plasma lactate). It counts as in vivo. To be noted: 20 mg/kg orally for 6 weeks; for expression of mitochondrial marker gene in muscle (mitochondrial activity): muscle tissue after treadmill, FIGS. 16-18; for exercise time / exercise ability on treadmill: run until exhausted, FIGS. 19, 25. The method, then: The following experiment was performed to confirm whether the exercise ability improving effect due to the increased mitochondrial production and lipid metabolism promotion of the ginseng seed-derived novel ginsenoside (GS #10) confirmed in Test Example 1 above was also shown at the actual individual level. 20 mg/kg each of the novel ginsenoside GS #10 of one embodiment of the present disclosure and the other ginsenosides GS #01-GS #06 isolated from the existing ginseng seed extract was orally administered to 39-week-old female Sprague-Dawley (SD) mice, and 10 mg/kg each thereof was orally administered to the control group GW/Met for 6 weeks. In order to improve the treadmill adaptability during the six-week experiment, mice were placed on the treadmill every two weeks to familiarize them with the use of the treadmill. After six weeks of administration, mice were placed on a treadmill to run on the treadmill. The exercise time was until the mice were exhausted and pushed down from the treadmill, and the mice which finished the exercise was immediately extracted of muscle tissue and plasma by necropsy. […] The expression patterns of mitochondrial marker genes in muscle are shown in FIGS. 16 to 18, and exercise time and plasma lactate in blood are shown in FIGS. 19 and 20.
as §4, §5

For data set [2], the system named is mouse-derived myocyte lines (C2C12; ATCC). The data set is described as follows: Fatty acid oxidation in differentiated myocytes. It counts as cell-based. To be noted: 20 pg/ml, 24 hours, FIG. 15. As for the experimental part: as §1, §2
as §3, with “As positive controls, a combination of GW501516 and Metformin (GW/Met; treated at 10 μM each), which are candidates for exercise mimetics and are known to improve exercise ability by activating PPARδ (Peroxisome proliferator-activated receptor delta) and AMPK (AMP-activated protein kinase), respectively, was used.” left out

Another data set deals with SH-SY5Y cells. The data set is described as follows: Cytotoxicity, Cell Counting Kit (CCK)-8. It is filed as cell-based. To be noted: SH-SY5Y cells, 0.1, 1, 5, 10, 20 and 50 μM; FIG. 27. As for the experimental part:
The cell growth in the presence of novel ginsenoside GS #10 of one embodiment of the present disclosure was evaluated using Cell Counting Kit (CCK)-8 in order to exclude the possibility that ginsenosides may affect exercise ability enhancing efficacy through cytotoxic activity. The experimental method is as follows.
10 μl of a CCK-8 reagent was added to SH-SY5Y cells in culture (Dojindo, Md., USA) with reference to a 96-well plate and left at 37° C. for 2 hours, and then absorbance was measured at 450 nm. The cell viability was marked as a percentage (%) of the absolute optical density of each sample relative to the untreated sample. At this time, the concentration of the novel ginsenoside GS #10, which is an example of the present disclosure, contained in the medium in which the cells were cultured was 0.1, 1, 5, 10, 20, and 50 μM, respectively.
(Tetrazolium assays rely on reduction of a dye to a coloured formazan, in cell work by metabolically active cells.)

Data set [3] has as its system C2C12 myoblasts induced with chronic inflammation (IL-6). Description: Cell growth recovery of myoblasts with IL-6-induced chronic inflammation. It counts as cell-based, mouse. To be noted: IL-6 10 ng/ml for 4 weeks, then 10 pg/ml for 48 hours; FIGS. 28, 32. The source says: Muscle cells are made from myosatellite cells present inside the muscle. They are usually in a quiescent state, and when muscle damage such as exercise is applied, they wake up and are divided to form myoblasts, and these myoblasts differentiate to form myocytes. These muscle stem cells are known to decrease in number and activity with age. In this process, the inflammatory response, especially IL-6 is involved. Therefore, it was confirmed through the following experiment whether the novel ginsenoside of the embodiment of the present disclosure can restore cell division of muscle stem cells under IL-6-mediated muscle stem cell growth inhibition conditions.
Since muscle stem cells are not available in the form of cell lines, mouse-derived muscle cell lines (C2C12, ATCC) located between muscle stem cells and myoblasts were cultured using Dulbecco's Modified Eagle's Medium (Sigma) containing 10% fetal bovine serum (Hyclone) and 1% penicillin/streptomycin (Sigma). […] Accordingly, in order to induce an inflammatory state due to aging, IL-6 (10 ng/ml) was treated for 4 weeks to induce myoblast aging. […] Myoblasts of this state were treated with the novel ginsenoside GS #10 of one embodiment of the present disclosure and the other ginsenosides GS #01-GS #06 isolated from the existing ginseng seed extract at a concentration of 10 pg/ml each for 48 hours. […]

The test system of another data set is C2C12 myoblasts. The data set is described as follows: Myocyte differentiation promotion (mRNA of MyoG, α-actin, myosin). It counts as cell-based, mouse. To be noted: 10 pg/ml during 4 days of differentiation in 2% horse serum; FIGS. 29-31, 33-35. The method, then: As muscles decrease with age, supplementing muscle mass by differentiating myoblasts into myocytes is an essential process for maintaining muscle mass. […] During the differentiation period, the novel ginsenoside GS #10 of one embodiment of the present disclosure and the other ginsenosides GS #01-GS #06 isolated from the existing ginseng seed extract were treated at a concentration of 10 pg/ml, respectively. The control is differentiation medium not treated with ginsenosides. […] After 4 days of differentiation, mRNA was extracted from each treatment group using Trizol™ reagent (Thermo Fisher Scientific), and then cDNA was synthesized using a RevertAid 1st strand cDNA synthesis kit (Thermo Fisher Scientific). The expression levels of myoG, α-actin and myosin, which are muscle fiber marker genes, were observed using a temperature-cycling nucleic acid amplifier (CFX96 thermocycle, Bio-Rad).
The experiment was performed in the same manner as in Test Examples 5 and 6.

For another data set, the system named is Balb/c mice. Description: Anti-fatigue efficacy in sleep-deprivation fatigue model (forced swim test, plasma lactate). It counts as in vivo. To be noted: oral, 2 weeks; GS #10 10 and 50 mg/kg, ginseng seed extract 50 mg/kg; 24 hours sleep deprivation; FIGS. 36, 37. The source says: In Test Example 2 above, it was confirmed that the novel ginsenoside GS #10 of one embodiment of the present disclosure improved exercise ability and lowered plasma lactate in blood that is increased by exercise. […] Experimental methods are the same as those described in Cho et al., Biol Pharm Bull 33 (7):1128, which is incorporated herein by reference in its entirety. Balb/c mice purchased from Samtako were adapted to the age of 12 weeks and then divided into a fatigue-induced group of 32 mice and a control of 8 mice. The fatigue-induced group was divided into 4 groups again, each of 8 mice, of which is the novel ginsenoside GS #10 10 mg/kg treatment group (F/GS #10 10), 50 mg/kg treatment group (F/GS #10 50), ginseng seed extract 50 mg/kg treatment group (F/GSE #10 50), and untreated group (Fatigue). The ginseng seed extract is a comparative example of the present disclosure, and is a ginseng seed (seeds of Panax ginseng) methanol extract used in the isolation of ginsenoside in Example 1 described above herein. […] Then, while performing the FST (forced swim test) 6 minutes, the time during which the mice of each experiment group floated still on the water without swimming was measured to calculate fatigue. Thereafter, the plasma lactate in blood was measured, and the degree of accumulation of the fatigue substance was observed. […]

`CC(C)=CCC[C@](C)(O[C@@H]1O[C@H](CO[C@@H]2OC[C@H](O)[C@H](O)[C@H]2O)[C@@H](O)[C@H](O)[C@H]1O)[C@H]1CC[C@]2(C)[C@@H]1[C@H](O)C[C@@H]1[C@@]3(C)CC[C@H](O[C@@H]4O[C@H](CO)[C@@H](O)[C@H](O)[C@H]4O[C@@H]4O[C@H](CO)[C@@H](O)[C@H](O)[C@H]4O)C(C)(C)[C@@H]3CC[C@]12C` [GS #06, ginsenoside Rb2, reference compound]: the “mitochondrial biosynthesis ability / mitochondria production (mitochondrial number; PGC1α, NRF1, tfam expression)” value in data set [1] (FIGS. 11-14, 21-24) is “a slight mitochondria increasing efficacy”. Moreover, in the data set on Sprague-Dawley (SD) mice, the “expression of mitochondrial marker gene in muscle (mitochondrial activity)” value (“expression of mitochondrial marker gene” below) is “insignificant” and the “exercise time / exercise ability on treadmill” value was “insignificant”.

Take ginsenoside Rg3: the “mitochondrial biosynthesis ability / mitochondria production (mitochondrial number; PGC1α, NRF1, tfam expression)” value in data set [1] (FIGS. 11-14, 21-24) is given as “did not increase mitochondria production”.

As to `CC(C)=CCC[C@](C)(O[C@@H]1O[C@H](CO)[C@@H](O)[C@H](O)[C@H]1O)[C@H]1CC[C@]2(C)[C@@H]1[C@H](O)C[C@@H]1[C@@]3(C)CC[C@H](O)C(C)(C)[C@@H]3[C@@H](O[C@@H]3O[C@H](CO)[C@@H](O)[C@H](O)[C@H]3O)C[C@]12C` [Rg1, ginsenoside Rg1], the “mitochondrial biosynthesis ability / mitochondria production (mitochondrial number; PGC1α, NRF1, tfam expression)” value in data set [1] (FIGS. 11-14, 21-24) is listed as “did not increase mitochondria production”.

For `CC(C)=CCC[C@](C)(O[C@@H]1O[C@H](CO[C@@H]2O[C@H](CO)[C@@H](O)[C@H](O)[C@H]2O)[C@@H](O)[C@H](O)[C@H]1O)[C@H]1CC[C@]2(C)[C@@H]1[C@H](O)C[C@@H]1[C@@]3(C)CC[C@H](O[C@@H]4O[C@H](CO)[C@@H](O)[C@H](O)[C@H]4O[C@@H]4O[C@H](CO)[C@@H](O)[C@H](O)[C@H]4O)C(C)(C)[C@@H]3CC[C@]12C` [GS #05, ginsenoside Rb1, reference compound], the “mitochondrial biosynthesis ability / mitochondria production (mitochondrial number; PGC1α, NRF1, tfam expression)” value in data set [1] (FIGS. 11-14, 21-24) is listed as “a slight mitochondria increasing efficacy”. In addition, in data set [1] (FIGS. 11-14, 21-24, listed as Rb1), the “mitochondrial biosynthesis ability / mitochondria production (mitochondrial number; PGC1α, NRF1, tfam expression)” value is recorded as “did not increase mitochondria production”. For the same compound, in the data set on Sprague-Dawley (SD) mice, the “expression of mitochondrial marker gene” value is “insignificant” and the “exercise time / exercise ability on treadmill” value was “insignificant”.

For the compound `C[C@@H]1CC(=O)C(C)(C)C2C1C1C[C@@H](O)C3C([C@]4(C)CC[C@H](C(C)(C)O)O4)CC[C@@]3(C)[C@]1(C)C[C@@H]2O[C@H]1OC(CO)[C@H](O)C(O)C1O[C@H]1OC(CO)[C@H](O)C(O)C1O` (stereo partly drawn) [GS #10, (20S,24R)-6-O-β-D-glucopyranosyl(1→2)-β-D-glucopyranoside-dammar-3-one-20,24-epoxy-6a,12b,25-triol], in data set [1] (FIGS. 11-14, 21-24), the “mitochondrial biosynthesis ability / mitochondria production (mitochondrial number; PGC1α, NRF1, tfam expression)” value is given as “the most excellent; also recorded: showed mitochondria increasing efficacy”. In addition, in data set [2], the “fatty acid oxidation in myocytes” value is “increased the most”. Further, the “lactic acid concentration (plasma lactate), muscle fatigue marker” value in the data set on Sprague-Dawley (SD) mice (blood after treadmill, FIGS. 20, 26) was “the lowest pattern; also recorded: anti-fatigue effect”. In addition, in the data set on Sprague-Dawley (SD) mice, the “expression of mitochondrial marker gene” value is on record as “significantly increased” and the “exercise time / exercise ability on treadmill” value is “doubled the exercise time; also recorded: significant exercise ability improvement”. The “cytotoxicity (cell viability, % of untreated)” value with SH-SY5Y cells is “did not exhibit cytotoxicity up to 50 μM”. The “cell growth recovery of aged myoblasts (number of cells)” value in data set [3] is on record as “a significant effect; also recorded: showed the effects of promoting myoblast growth”. In addition, the “myocyte differentiation marker gene expression (MyoG, α-actin, myosin)” value in the data set on C2C12 myoblasts is given as “a significant increase in marker gene expression; also recorded: myocyte differentiation”. For the same compound, the “fatigue relief (FST immobility time, plasma lactate)” value with Balb/c mice is listed as “reduce the symptoms caused by fatigue in a concentration-dependent manner”.
